These results are taken from paper PMC8073777, “Design, Synthesis, Biological Evaluation and In Silico Studies of Pyrazole-Based NH2-Acyl Oseltamivir Analogues as Potent Neuraminidase Inhibitors” (Pharmaceuticals, 2021).

This assay deals with A/H3N2 influenza NA (Influenza A virus (H3N2), UniProt Q91IQ5). Type of assay: biochemical, A/H3N2 influenza virus (clinical isolate from Hong Kong). Conditions: 10 µM.
As for `CCC(CC)O[C@@H]1C=C(C(=O)O)C[C@H](NC(=O)c2cc(C3CC3)nn2-c2ccccc2C)[C@H]1NC(C)=O` [Compound 26b, (3R,4R,5S)-4-acetamido-5-(3-cyclopropyl-1-(o-tolyl)-1H-pyrazole-5-carboxamido)-3-(pentan-3-yloxy) cyclohex-1-ene-1-carboxylic acid], the “Inhibitory rate against A/H3N2 influenza NA” value (from here on “Inhibitory rate”) stood at 72.80%.
Regarding `CCC(CC)O[C@@H]1C=C(C(=O)O)C[C@H](NC(=O)c2cc(C3CC3)nn2-c2cccc(C)c2)[C@H]1NC(C)=O` [Compound 26c, (3R,4R,5S)-4-acetamido-5-(3-cyclopropyl-1-(m-tolyl)-1H-pyrazole-5-carboxamido)-3-(pentan-3-yloxy) cyclohex-1-ene-1-carboxylic acid], the “Inhibitory rate” value amounted to 31.53%.
As for `CCC(CC)O[C@@H]1C=C(C(=O)O)C[C@H](NC(=O)c2cc(C3CC3)nn2-c2ccc(Br)cc2)[C@H]1NC(C)=O` [Compound 26d, (3R,4R,5S)-4-acetamido-5-(1-(4-bromophenyl)-3-cyclopropyl-1H-pyrazole-5-carboxamido)-3-(pentan-3-yloxy) cyclohex-1-ene-1-carboxylic acid], the “Inhibitory rate” value came out at 37.17%.
As for `CCC(CC)O[C@@H]1C=C(C(=O)O)C[C@H](N)[C@H]1NC(C)=O` [OC, oseltamivir carboxylate, reference compound], the “Inhibitory rate” value is on record as 97.46%.
